Like-named read-outs stand apart in the source and are kept apart here.
Experiments:
Assay type in all cases: in vivo
[1] = test system: Nephotettix cincticeps; test: Nephotettix test (rice seedlings dipped in the active compound preparation); details: for mortality at 0.0001 %: Nephotettix cincticeps, 144 h, read-out: Wirkung (Abtötung in %)
Excerpt: (§1) Lösungsmittel: 7 Gewichtsteile Dimethylformamid Emulgator: 1 Gewichtsteil Alkylarylpolyglykolether
Zur Herstellung einer zweckmäßigen Wirkstoffzubereitung vermischt man 1 Gewichstteil Wirkstoff mit der angegebenen Menge Lösungsmittel und der angegebenen Menge Emulgator und verdünnt das Konzentrat mit Wasser auf die gewünschte Konzentration.
Reiskeimlinge (Oryza sativa) werden durch Tauchen in die Wirkstoffzubereitung der gewünschten Konzentration behandelt und mit der Grünen Reiszikade (Nephotettix cincticeps) besetzt, solange die Keimlinge noch feucht sind.
Nach der gewünschten Zeit wird die Abtötung in % bestimmt. Dabei bedeutet 100 %, daß alle Zikaden abgetötet wurden; 0 % bedeutet, daß keine Zikaden abgetötet wurden.

[2] = test system: Phaedon cochleariae-Larven; test: Critical concentration test / root-systemic action, Phaedon cochleariae larvae; details: Wirkstoffkonzentration 20 ppm im Boden, Kohl (Brassica oleracea), Besatz nach 7 Tagen, Auswertung nach weiteren 2 Tagen
Excerpt: Grenzkonzentrations-Test / Wurzelsystemische Wirkung Testinsekt: Phaedon cochleariae-Larven Lösungsmittel: 3 Gewichtsteile Aceton
Emulgator: 1 Gewichtsteil Alkylarylpolyglykolether
(§2) Zur Herstellung einer zweckmäßigen Wirkstoffzubereitung vermischt man 1 Gewichtsteil Wirkstoff mit der angegebenen Menge Lösungsmittel, gibt die angegebene Menge Emulgator zu und verdünnt das Konzentrat mit Wasser auf die gewünschte Konzentration.
(§3) Die Wirkstoffzubereitung wird innig mit Boden vermischt. Dabei spielt die Konzentration des Wirkstoffs in der Zubereitung praktisch keine Rolle, entscheidend ist allein die Wirkstoffgewichtsmenge pro Volumeneinheit Boden, welche in ppm (= mg/1) angegeben wird. Man füllt den behandelten Boden in Töpfe und bepflanzt diese mit Kohl (Brassica oleracea). Der Wirkstoff kann so von den Pflanzenwurzeln aus dem Boden aufgenommen und in die Blätter transportiert werden.
(§4) Für den Nachweis des wurzelsystemischen Effektes werden nach 7 Tagen ausschließlich die Blätter mit den obengenannten Testtieren besetzt. Nach weiteren 2 Tagen erfolgt die Auswertung durch Zählen oder Schätzen der toten Tiere. Aus den Abtötungszahlen wird die wurzelsystemische Wirkung des Wirkstoffs abgeleitet. Sie ist 100 %, wenn alle Testtiere abgetötet sind und 0 %, wenn noch genau so viele Testinsekten leben wie bei der unbehandelten Kontrolle.

[3] = test system: Myzus persicae; test: Critical concentration test / root-systemic action, Myzus persicae; details: Wirkstoffkonzentration 20 ppm im Boden, Kohl (Brassica oleracea), Besatz nach 7 Tagen, Auswertung nach weiteren 2 Tagen; for mortality at 20 µg/mL: Myzus persicae, 48 h, read-out: wurzelsystemische Wirkung
Excerpt: Grenzkonzentrations-Test / Wurzelsystemische Wirkung Testinsekt: Myzus persicae Lösungsmittel: 3 Gewichtsteile Aceton Emulgator: 1 Gewichtsteil Alkylarylpolyglykolether
as §2, §3, §4

[4] = test system: Aphis fabae; test: Aphis test (systemic action, soil drench of bean plants); details: 96 h, read-out: Wirkung (Abtötung in %)
Description: Aphis-Test (systemische Wirkung)
as §1
Zur Herstellung einer zweckmäßigen Wirkstoffzubereitung vermischt man 1 Gewichtsteil Wirkstoff mit der angegebenen Menge Lösungsmittel und der angegebenen Menge Emulgator und verdünnt das Konzentrat mit Wasser auf die gewünschte Konzentration.
Mit je 20 ml Wirkstoffzubereitung der gewünschten Konzentration werden Bohnenpflanzen (Vicia faba), die stark von der schwarzen Bohnenlaus (Aphis fabae) befallen sind, angegossen, so daß die Wirkstoffzubereitung in den Boden eindringt, ohne den Sproß zu benetzen. Der Wirkstoff wird von den Wurzeln aufgenommen und in den Sproß weitergeleitet.
Nach der gewünschten Zeit wird die Abtötung in % bestimmt. Dabei bedeutet 100 %, daß alle Blattläuse abgetötet wurden; 0 % bedeutet, daß keine Blattläuse abgetötet wurden.

[5] = test system: Lucilia cuprina resistent-Larven; test: Test with resistant Lucilia cuprina larvae; details: 24 h, Wirkstoffkonzentration 100 ppm, nach 24 Stunden, read-out: Abtötung
Excerpt: Test mit Lucilia cuprina resistent-Larven
Emulgator: 35 Gewichtsteile Ethylenglykolmonomethylether 35 Gewichtsteile Nonylphenolpolyglykolether
Zur Herstellung einer zweckmäßigen Wirkstoffzubereitung vermischt man drei Gewichtsteile Wirkstoff mit sieben Gewichtsteilen des oben angegebenen Gemisches und verdünnt das so erhaltene Konzentrat mit Wasser auf die jeweils gewünschte Konzentration.
Etwa 20 Lucilia cuprina res.-Larven werden in ein Teströhrchen gebracht, welches ca. 1 cm^3 Pferdefleisch und 0,5 ml der Wirkstoffzubereitung enthält. Nach 24 Stunden wird der Abtötungsgrad bestimmt.

[6] = Wirkstoffkonzentration 0,0001 %, nach 6 Tagen, Reiskeimlinge (Oryza sativa) getaucht
[7] = Wirkstoffkonzentration 0,01 %, nach 4 Tagen, Bohnenpflanzen (Vicia faba) angegossen, systemisch

Structure (SMILES): O=C(C=C1SCCN1Cc1ccc(Cl)nc1)C(F)(F)F [Beispiel 3, 3-(6-Chlor-pyrid-3-yl)-methyl-2-(trifluormethylcarbonylmethylen)-1,3-thiazolidin]
- Wirkung (Abtötung in %) [1, 6]: 90%
- wurzelsystemische Wirkung [2]: 100%
- wurzelsystemische Wirkung [3]: 100%

Structure (SMILES): O=C(C=C1NCCN1Cc1ccc(Cl)nc1)C(F)(F)F [Beispiel 4, 1-(6-Chlor-pyrid-3-yl)-methyl-2-(trifluormethylcarbonylmethylen)-imidazolidin]
- mortality at 0.01 % [4, 7]: 100%
- mortality at 20 µg/mL [3]: 100%
- mortality at 100 µg/mL [5]: 100%

Structure (SMILES): O=C(C(C(=O)C(F)(F)F)=C1NCCN1Cc1ccc(Cl)nc1)C(F)(F)F [Beispiel 5, 2-[(Di-trifluormethylcarbonyl)-methylen]-3-(6-chlor-pyrid-3-yl)-methylimidazolidin]
- mortality at 0.0001 % [1, 6]: 100%
- mortality at 0.01 % [4, 7]: 100%
- mortality at 20 µg/mL [3]: 100%
- mortality at 100 µg/mL [5]: 100%

Structure (SMILES): O=C(C=C1NCCCN1Cc1ccc(Cl)nc1)C(F)(F)F [Beispiel 8]
- mortality at 0.01 % [4, 7]: 100%
- mortality at 20 µg/mL ([2]; Phaedon, 48 h, read-out: wurzelsystemische Wirkung): 100%
- mortality at 20 µg/mL [3]: 100%
- mortality at 100 µg/mL [5]: 100%

Structure (SMILES): O=C(C(C(=O)C(F)(F)F)=C1NCCCN1Cc1ccc(Cl)nc1)C(F)(F)F [Beispiel 9]
- mortality at 100 µg/mL [5]: 100%

Structure (SMILES): O=[N+]([O-])C=C1NCCCS1 [Vergleichssubstanz (A), Tetrahydro-2-nitromethylen-2H-1,3-thiazin, reference compound]
- mortality at 0.0001 % [1]: 20%
- mortality at 0.01 % [4]: 50%
- wurzelsystemische Wirkung [2]: keine Wirkung
- wurzelsystemische Wirkung [3]: keine Wirkung
